A short description of series [1]: Oral bioavailability in dogs (plasma AUC method, i.v. versus p.o.). Particulars: dog, 10 umol/kg, plasma level measurements, 1 µmol·kg^-1 i.v. and 10 µmol·kg^-1 p.o. It counts as in vivo. The protocol: Dose-effect studies in rat following subcutaneous versus oral administration further support a high availability of the compound at the receptor after oral administration.
Method: Assessment for oral bioavailability (systemic availability) was based on the plasma area under the curve (AUC) method. An aqueous saline solution of compound of the invention was administered intravenously (i.v.) and orally (p.o.) to the animals and concentrations of the compound in plasma measured at numerous timepoints. The doses administered were 1 µmol·kg^-1 and 10 µmol·kg^-1 for intravenous and oral administration, respectively. AUC was calculated according to the trapezoidal rule. Determination of the test compound in plasma was accomplished by an HPLC method which incorporated electrochemical detection.

For the next series, the target named is T1, 5-HT1A receptors (Rattus norvegicus, UniProt P19327).
T1 construct: Cerebral cortex + hippocampus from each rat was dissected and homogenized; from tissue; host or cells: rat cerebral cortex + hippocampus homogenate
T1 sequence (P19327 1-422): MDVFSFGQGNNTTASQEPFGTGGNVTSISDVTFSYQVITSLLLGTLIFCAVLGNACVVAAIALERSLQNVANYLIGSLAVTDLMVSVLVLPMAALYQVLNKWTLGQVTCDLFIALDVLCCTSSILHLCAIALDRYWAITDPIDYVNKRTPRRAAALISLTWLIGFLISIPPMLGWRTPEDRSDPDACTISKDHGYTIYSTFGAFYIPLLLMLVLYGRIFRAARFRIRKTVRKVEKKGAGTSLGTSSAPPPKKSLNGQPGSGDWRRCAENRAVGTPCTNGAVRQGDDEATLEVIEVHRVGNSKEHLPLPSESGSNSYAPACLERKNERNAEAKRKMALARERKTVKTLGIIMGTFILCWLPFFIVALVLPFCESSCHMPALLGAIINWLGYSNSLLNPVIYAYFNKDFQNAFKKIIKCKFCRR
Kind of series: 5HT1A binding assay (3H-8-OH-DPAT, rat cerebral cortex + hippocampus homogenate). The conditions noted are these: rat brain, 37°C, 10 minutes. The protocol:
In order to evaluate the 5-HT-receptor stimulating effect and selectivity, the affinity for various receptors in rat brain were measured in vitro using receptor assay. The stereospecific (R)-enantiomeric compound of the invention (R)-3-(N-isopropyl-N-n-propylamino)-5-(N-isopropyl)carbamoylchroman has Ki 8.6 (nM) and the racemic compound 3-(N-isopropyl-N-n-propylamino)-5-(N-isopropyl)-carbamoylchroman has Ki 24 (nM). The Ki value for the (S)-enantiomer exceeded 1000 nM.
Method: 5HT1A binding assay. Cerebral cortex + hippocampus from each rat was dissected and homogenized in 15 ml ice-cold 50 mM Tris-HCl buffer 4.0 mM CaCl2 and 5.7 mM ascorbic acid, pH 7.5 with an Ultra-Turrax (Janke & Kunkel, Staufen, FRG) for ten s. After centrifugation for 12.5 min at 17,000 rpm (39,800 x g in a Beckman centrifuge with a chilled JA-17 rotor (Beckman, Palo Alto, CA, USA), the pellets were resuspended in the same buffer and homogenization and centrifugation repeated. To each pellet 5 ml ice-cold 0.32 M sucrose were added and homogenized for 5 sec. These samples were kept frozen at -70°C. When used they were diluted with the buffer to 8 mg tissue/ml and homogenized for 10 sec. The tissue homogenates were incubated for ten minutes at 37°C and then supplied with 10 µM pargyline followed by reincubation for 10 minutes.
The binding assay followed that described by Peroutka, J. Neurochem. 47, 529-540, (1986). The incubation mixture (2 ml) contained ^3H-8-OH-DPAT (0.25 to 8 nM), 5 mg/ml tissue homogenate in 50 mM Tris-HCl buffer containing 4.0 mM CaCl2 and 5.7 mM ascorbic acid, pH 7.5. Six different concentrations of ^3H-8-OH-DPAT were analyzed. Binding experiments were started by the addition of tissue homogenate and followed by incubation at 37°C for 10 minutes. […] The filters were washed twice with 5 ml ice-cold 50mM Tris-HCl buffer, pH 7.5, and counted with 5 ml Ready-solv HP (Beckman) in a Beckman LS 3801 scintillation counter. Non-specific binding was measured by the addition of 10 µM 5-HT to the reaction mixture. […]

The nature of series [2]: Temperature effects: body temperature in rats. It counts as in vivo. As for the experimental part: Method: In each test, thirty rats, weighing approx 250 g, housed in 6 cages of 5 rats, are used. The rats have free access to food and water. Before the start of testing, they are numbered and left undisturbed for at last 1 hour. Before the administration of the compound, the body temperature of each rat is measured using a YSI 2100 tele-thermometer. The thermometer probe is inserted 10 cm into the rectum and left in pace for thirty seconds. The drug is then administered either subcutaneously or orally. In each experiment vehicle and 4 doses of drug are tested. One rat in each cage receives each treatment. The order of treatment is rotated since disturbance to the cage increases the activity of the rats, and thereby their body temperature. Thirty minutes after drug administration the rats' body temperature are measured again. The procedure is repeated 60, 90 and 120 minutes after drug administration. The resultant data on body temperature is subjected to analysis of variance. A significant group by time interaction is taken as an indication of drug effect. To obtain the minimum effective dose, the mean temperature for each of the drug treated groups are compared with that of the vehicle group at each time point using Dunnett's t-test with a level of significance of p<0.02. […]

The subject of another series is synthesis rate of 5-HT. Put plainly: Synthesis of 5-HT: accumulation of 5-HTP in rat brain after NSD 1015. In kind it is in vivo. Particulars: compound given 30 min before NSD 1015. As for the experimental part: Method: The rate of synthesis of 5-HT in the rat streatum was measured as the accumulation of 5-HTP during 30 min after inhibition of aromatic L-amino acid decarboxylase by NSD 1015 (decarboxylase inhibitor, 100 mg/kg i.p.). The test compound was administered 30 min before the NSD 1015. The regions of the brain to be examined were dissected, frozen and stored.
The levels of 5-HTP (5-hydroxytryptophan) was determined by use of high performance liquid chromatography (HPLC) with electrochemical detection according to the method of Magnusson, Nilsson and Westerlund (1980). The mobile phase was 0.1 M phosphate buffer (pH 2.5):methanol:acetonitrile-89:9:2 v/v, containing 1mM octylsulphate. The frozen samples were weighed and homogenized in 0,1 M perchloric acid, containing […] sodium bisulphite, 1 mM ethylene diamine tetraacetic acid (EDTA) and epinine as an internal standard. The supernatants were injected directly onto a Supelcosil C18 (3 µM) column, connected to a detector (ESA Coulochem 5100A), set to 0.05/0.40 V.

The record followed here is patent publication EP0607274B1, “3-(N-ISOPROPYL-N-n-PROPYLAMINO)-5-(N-ISOPROPYL)CARBAMOYLCHROMAN” (priority 1991, dated 1993).

For `CCCN(C(C)C)C1COc2cccc(C(=O)NC(C)C)c2C1` (racemic) [racemate, 3-(N-Isopropyl-N-n-propylamino)-5-(N-isopropyl)carbamoyl chroman], in series [1], the bioavailability – broadly, the share of a dose that reaches the circulation, judged against a reference dose that is usually intravenous – worked out at 21%. In addition, on 5-HT1A receptors, the Ki (commonly the equilibrium dissociation constant of an inhibitor or competing ligand from its target) was found to be 24 nM.
`CCCN(C(C)C)[C@H]1COc2cccc(C(=O)NC(C)C)c2C1` [(R)-enantiomer, (R)-3-(N-Isopropyl-N-n-propylamino)-5-(N-isopropyl)carbamoylchroman] showed a bioavailability in series [1] of 17%. In addition, at 5-HT1A receptors, the Ki was 8.6 nM. The body temperature result in series [2] (1 mg/kg oral administration) and in series [2] (subcutaneous administration of 0.3 mg/kg) was “significant temperature decrease” each time. The “synthesis rate of 5-HT, measured as 5-HTP level in rat brain” value in the series on synthesis rate of 5-HT (0.2 mg/kg oral administration) and with synthesis rate of 5-HT (0.1trig/kg subcutaneous administration) was “significant decrease” in each case.
On to `CCCN(C(C)C)[C@@H]1COc2cccc(C(=O)NC(C)C)c2C1` [(S)-enantiomer, (S)-enantiomer of 3-(N-isopropyl-N-n-propylamino)-5-(N-isopropyl)carbamoylchroman], for which the inhibitory constant (Ki) on 5-HT1A receptors is > 1000 nM.
